Patent US20250382631A1, “PROTAC-CID SYSTEMS FOR USE IN MULTIPLEX GENE REGULATION” (William Marsh Rice University, priority 2022, published 2025)

Key:
endogenous BRD4 = molecular target: T1, endogenous BRD4 (Mus musculus, UniProt Q9ESU6); assay: Immunoblot of endogenous BRD4 in mice liver tissue; assay type: in vivo, FVB mice; conditions: 50 mg/kg MZ1 i.p., FIG. 21
T1 construct: Immunoblot analysis of endogenous long isoform BRD4 (BRD4L) after 50 mg/kg MZ1 treatment i.p; from tissue; host or cells: liver of FVB mice (AAV-infected, MZ1-treated)
Excerpt: Immunoblots and RT-qPCR. Mice liver tissues or culture cells were lysed in RIPA buffer (Abcam no. ab156034) supplemented with phosphatase inhibitor (Thermo Fisher Scientific no. PIA32957) and protease inhibitors (Fishers cientific no. A32965). Lysates were resolved by 10% Tris-glycine SDS-PAGE, transferred to PVDF membrane (Bio-Rad no. 1620177), and blotted with antibodies BRD4 (Abcam, ab128874), GAPDH (Cell Signaling Technology, 2118L), luciferase (ABclonal, requested), Ran (ABclonal, A0976), Hsp90 (Cell Signaling Technology, 4874). Images were acquired using LumiQuant AC600 (Acuronbio Technology Inc), quantification analysis was processed by ImageJ software. Trizol reagent (Sigma no. T9424) was used to extract total RNA from liver. RNAs were purified using RNeasy Mini kit (QIAGEN no. 4106). The quality and concentration of total RNA were checked on NanoDrop™ 2000/2000c Spectrophotometers (Thermo Fisher Scientific no. ND2000LAPTOP). Reverse transcription of total RNA was performed using a Applied Biosystems™ High-Capacity cDNA Reverse Transcription Kit (Thermo Fisher Scientific no. 4368813) and qPCR was conducted with SYBR Green Master Mix (Abclonal no. RK21203) on QuantStudio 6 Real-time PCR system (Thermo Fisher Scientific).
AAV production and Mouse for in vivo delivery. […] FVB mice were purchased from the Jackson Laboratory.

[1] = tested on: pUAS-2-driven Fluc in HEK293T cells co-infected with Virus a and Virus b; assay: AAV infection of HEK293T cells, luciferase bioluminescence; assay type: cell-based, human; conditions: 100 nM MZ1, three days post-infection, FIG. 4B
Description: AAV infection on HEK293T cells. Before infection, HEK293T cells were seeded into 96 well plates (Corning no. 3610). When the confluency reaching 50%, 1 μL of each purified AAV virus (Virus a and Virus b in FIGS. 4 and 19) were added into the supernatant of HEK293T cells. 100 nM of MZ1 or DMSO was added into the supernatant. Three days post-infection, cells with 80 μL medium were treated with 40 μL lysis buffer (500 mM DTT, 10 mM coenzyme A, 100 mM ATP, 80 mg/mL D-luciferin, Triton lysis buffer (0.1082 M Tris-HCl, 0.0419 M Tris-Base, 75 mM NaCl, 3 mM MgCl2)). To lysis the cells Plate was shaken by plate reader Infinite M200 (TECAN) with 20 seconds in “Orbital” mode with frequency of 432 rpm and Amplitude of 1 mm. Relative light units of luminescence was recorded by plate reader Infinite M200 (TECAN) with 1000 ms integration time using Megellan v1.7 (TECAN).

[2] = tested on: EYFP and BFP expression in HEK293T cells; assay: Dual PROTAC-based inducible gene cassettes (EYFP and BFP), microscopy; assay type: cell-based, human; conditions: MZ1 (100 nM) and dTAG-13 (100 nM) PROTAC-CID systems, FIG. 16A
Description: Transfection and microscopy. HEK293T cells (American Type Culture Collection, no. CRL-3216) were cultured with high-glucose Dulbecco's modified Eagle's medium (DMEM) (Thermo Fisher Scientific no. 10569044) with 10% fetal bovine serum (FBS) (Thermo Fisher Scientific no. 10437028) and 1×penicillin-streptomycin (Thermo Fisher Scientific no. 15140122) at 37° C. with 5% CO2. Except for the data in FIGS. 3C, 3E, and 3H, cells were plated into 96 well plate (Corning no. 3598) and transfected by Polyethyleneimine Max (PEI Max) (Polysciences no. 24765-1). 1.5 μL PEI Max (1 mg/mL, pH=7.1) and 100 μl DMEM were mixed with plasmids to be slowly dropped into the cell medium after 30 mins of incubation. Medium was changed 12 hours post-transfection. The inductive small molecules, including Rapamycin (STEM CELL technologies no. 73362), dTAG-13 (TOCRIS no. 6605/5), dTAG^V-1 (TOCRIS no. 6744-5), dBRD9 (TOCRIS no. 6606/5), dTRIM24 (TOCRIS no. 6607/5), MZ1 (TOCRIS no. 6154/5), AT1 (TOCRIS no. 6356/5), TL13-12 (TOCRIS no. 6744/5), TL13-112 (TOCRIS no. 6745/5), dTAG-7 (TOCRIS no. 69125), ZXH3-26 (TOCRIS no. 6713/5) and ABA (GoldBio no. A-050-100), dissolved in Dimethyl sulfoxide (DMSO) (Sigma, no. D8418) were added. For the microscopy observation, the images were taken by Microscopy EVOS (Life Technologies) and processed by ImageJ (Schneider et al., 2012). If not otherwise noted, 60 ng of each plasmid were used for each sample.
The inventors next tested the feasibility of dual PROTAC-based inducible gene cassettes (FIG. 15). In the first cassette, GAL4 was fused with FKBP12^F36V, and VHL was ligated with VPR to drive EYFP expression in response to dTAG^V-1. In the second cassette, TetR was fused with BRD9BD, and CRBN was connected with VPR to drive blue fluorescence protein (BFP) expression in the presence of dBRD9. […] As biological computation relies on the protein or DNA to execute Boolean logic gate operation in living organisms for cell discrimination and disease diagnosis (3, 11, 42), the inventors next explored the possibility of PROTAC-CID enabled logic gate biological computation. By placing EYFP under control of the TRE (Tetracycline response element) and pUAS-1 promoter, the inventors observed strong EYFP expression by using one or two PROTACs, achieving clear logic OR gate responses (FIGS. 2C and 16B). To develop a more sophisticated logic AND gate, the inventors took advantage of two orthogonal site-specific DNA recombinases (Cre and Dre) for biological computation (43). […] In this gene circuit, only in the presence of both dTAG-13 and dBRD9 inducers, Dre and Cre can be expressed to remove their respective “STOP” signals, resulting in the eventual GFP expression as a clear logic AND readout (FIGS. 2D and 16C).

Row | SMILES | expression of BRD4 in mice liver tissue (endogenous BRD4) | increase in luciferase bioluminescence intensity [1] | gene activation from dual inducible cassettes [2]
1 | Cc1ncsc1-c1ccc(CNC(=O)[C@@H]2C[C@@H](O)CN2C(=O)[C@@H](NC(=O)COCCOCCOCCNC(=O)C[C@@H]2N=C(c3ccc(Cl)cc3)c3c(sc(C)c3C)-n3c(C)nnc32)C(C)(C)C)cc1 [MZ1] | did not observe a significant change in the expression of BRD4 | more than 60 fold | single gene activation with one PROTAC small molecule and dual-gene activation using both PROTACs
2 | CC[C@H](C(=O)N1CCCC[C@H]1C(=O)O[C@H](CCc1ccc(OC)c(OC)c1)c1ccccc1OCC(=O)NCCCCCCOc1cccc2c1C(=O)N(C1CCC(=O)NC1=O)C2=O)c1cc(OC)c(OC)c(OC)c1 (stereo partly shown) [dTAG-13] | – | – | single gene activation with one PROTAC small molecule and dual-gene activation using both PROTACs
